{"source": "patent US9226929B2", "about": "“Pharmaceutically active disubstituted triazine derivatives” (Bayer Intellectual Property GMBH, priority 2011, dated 2016)", "key": {"CDK6/CyclinD3": {"target": "T1, CDK6/CyclinD3 (Homo sapiens, UniProt Q00534)", "T1 construct": "purchased Carna", "T1 sequence (Q00534 whole entry)": "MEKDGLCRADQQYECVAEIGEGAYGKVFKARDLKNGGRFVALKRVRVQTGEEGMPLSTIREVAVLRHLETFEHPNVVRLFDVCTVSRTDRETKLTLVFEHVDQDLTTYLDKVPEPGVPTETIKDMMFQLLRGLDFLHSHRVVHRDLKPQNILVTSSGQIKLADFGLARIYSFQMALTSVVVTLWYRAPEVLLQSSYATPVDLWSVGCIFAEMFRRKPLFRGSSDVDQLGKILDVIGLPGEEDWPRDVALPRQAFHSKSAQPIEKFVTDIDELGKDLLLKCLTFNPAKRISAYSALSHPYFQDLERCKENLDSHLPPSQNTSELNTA", "T1 sequence (P30281 whole entry partner)": "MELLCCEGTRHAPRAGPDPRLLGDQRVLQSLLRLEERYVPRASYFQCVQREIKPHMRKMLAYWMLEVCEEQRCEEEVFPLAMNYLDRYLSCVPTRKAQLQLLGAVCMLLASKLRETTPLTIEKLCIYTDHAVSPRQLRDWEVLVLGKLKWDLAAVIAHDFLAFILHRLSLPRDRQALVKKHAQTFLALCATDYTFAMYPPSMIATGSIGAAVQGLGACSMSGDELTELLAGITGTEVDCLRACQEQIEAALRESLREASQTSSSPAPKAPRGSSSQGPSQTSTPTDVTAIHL", "assay": "Lance Ultra KinaSelect Assay, CDK6", "type": "biochemical", "details": "ATP 55 μM; read-out: CDK6 LANCE assay (activity range), IC50", "method": "(§1) 2. Measurement of half maximal inhibitory concentration to CDKs This protocol describes how the Lance Ultra KinaSelect Assay was performed to determine half maximal inhibitory concentration (1050) of compounds of general formula (I) and CDK/Cyclin complexes. The principle behind this enzymatic assay is based upon the phosphorylation of the ULight-Peptide Substrat. It is detected by using a specific\n(§2) EU-labeled anti-phospho peptide antibody. The binding of the Eu-labeled anti-phospho peptide antibody to the phosphorylated ULight labeled peptide gives rise to a FRET-signal. Binding of an inhibitor to the kinase prevents phosphorylation of the ULight-MBP Substrat, resulting in a loss of FRET.\n(§3) The compounds of general formula (I) summarized in Table 5 were diluted from a 10 mM DMSO stock solution 1:10 in a total volume of 15 μL DMSO. This compound predilution was then serial diluted 1:3 over 8 steps in DMSO and briefly spun down. Each compound solution was now diluted 1:20 in Enzymatic Buffer (HEPES: 50 mM, pH: 7.5; MgCl2: 10 mM; EGTA: 1 mM; DTT: 2 mM; Tween-20: 0.01%), mixed thoroughly and spun down. For every sample, 2 μL of the diluted compound were mixed with 6 μL CDK/Cyclin/Substrat solution and 2 μL ATP solution in a well of a small volume 384 well plate (Corning Incorporated, Corning, N.Y., USA; order no. 3673). The CDK/Cyclin was diluted to the appropriate concentration (see Table 3) and the ATP concentration was adjusted to its […] for the CDK/Cyclin, which was 3 μM for CDK2/Cyclin A, 20 μM for CDK1/Cyclin B1, 25 μM for CDK7/Cyclin H and CDK9/Cyclin T1, 55 μM for CDK6/Cyclin D3, 90 μM for CDK4/Cyclin D1 and 125 μM for CDK9/Cyclin K. For negative controls, in each well 2 μL of DMSO solution (1% final DMSO assay concentration) was mixed with 6 μL substrate solution (50 nM ULight MBP final assay concentration) and 2 μL ATP solution (appropriate final concentration see Table 3). For positive controls, in each well 2 μL of DMSO solution (1% final DMSO assay concentration) was mixed with 6 μL CDK/Cyclin/Substrat (appropriate final concentration see Table 3) and 2 μL Tracer ATP solution (appropriate final concentration see Table 3). Positive and negative controls were calculated from at least 8 different sample wells. The 384 well plates were mixed in a Teleshaker plate mixer (Beckman Coulter, Brea, Calif., USA) at 2000 rpm for 40 sec, and incubated for 1 h at room temperature. Before reading, 10 μL the detection buffer (Lance Detection Buffer 1×; EDTA: […]; Eu-Anti-P-MBP: see Table 3) was added. The FRET signal was measured at 340 nm excitation, 665 nm and 615 nm emission (for the kinase tracer and LanthaScreen Eu-AB, respectively) with an Envision spectrophotometer (Perkin Elmer, Waltham, Mass., USA) with 50 μs delay and 300 μs integration time. IC50 values were determined from the sigmoidal dose response curves with the software Quattro Workflow (Quattro GmbH, Munich, Germany)."}, "CDK7/CyclinH/MAT1": {"target": "T2, CDK7/CyclinH/MAT1 (Homo sapiens, UniProt P50613)", "T2 construct": "His; purchased Carna Biosciences", "T2 sequence (P50613 whole entry)": "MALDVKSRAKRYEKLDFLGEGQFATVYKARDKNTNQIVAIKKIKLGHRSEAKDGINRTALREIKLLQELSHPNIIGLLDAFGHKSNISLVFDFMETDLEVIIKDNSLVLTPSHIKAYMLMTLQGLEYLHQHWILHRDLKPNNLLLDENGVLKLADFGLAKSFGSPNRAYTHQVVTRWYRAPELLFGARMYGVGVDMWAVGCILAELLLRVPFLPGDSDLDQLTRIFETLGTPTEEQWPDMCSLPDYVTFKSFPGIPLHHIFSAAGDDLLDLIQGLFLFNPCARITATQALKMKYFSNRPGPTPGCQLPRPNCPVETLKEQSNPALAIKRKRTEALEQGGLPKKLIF", "T2 sequence (P51946 whole entry partner)": "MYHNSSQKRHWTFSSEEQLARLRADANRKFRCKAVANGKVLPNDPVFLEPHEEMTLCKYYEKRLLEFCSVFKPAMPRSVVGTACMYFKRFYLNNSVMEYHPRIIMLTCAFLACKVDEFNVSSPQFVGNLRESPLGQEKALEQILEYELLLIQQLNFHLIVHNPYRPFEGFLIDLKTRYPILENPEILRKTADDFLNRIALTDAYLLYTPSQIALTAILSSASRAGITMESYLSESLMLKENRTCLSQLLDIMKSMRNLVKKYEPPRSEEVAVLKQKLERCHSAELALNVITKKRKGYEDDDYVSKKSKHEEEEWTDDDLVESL", "T2 sequence (P51948 whole entry partner)": "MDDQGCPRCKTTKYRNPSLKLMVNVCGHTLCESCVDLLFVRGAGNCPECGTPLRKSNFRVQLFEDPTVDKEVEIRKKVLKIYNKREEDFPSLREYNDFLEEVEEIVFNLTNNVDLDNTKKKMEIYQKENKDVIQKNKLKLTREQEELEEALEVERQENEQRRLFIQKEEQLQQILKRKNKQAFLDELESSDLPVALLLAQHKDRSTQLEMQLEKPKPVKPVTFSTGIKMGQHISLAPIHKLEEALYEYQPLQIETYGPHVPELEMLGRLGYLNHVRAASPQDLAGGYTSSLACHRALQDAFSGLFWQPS", "assay": "Lance Ultra KinaSelect Assay, CDK7", "type": "biochemical", "details": "ATP 25 μM; read-out: CDK7 LANCE assay (activity range), IC50", "method": "as §1, §2, §3"}, "CDK2/CyclinA": {"target": "T3, CDK2/CyclinA (Homo sapiens, UniProt P24941)", "T3 construct": "GST; purchased Proqinase", "assay": "LanthaScreen Eu Kinase Binding Assay, CDK2", "details": "tracer 236, read-out: CDK2 (activity range), Kd", "method": "This protocol describes how the LanthaScreen Eu Kinase Binding Assay was performed to determine dissociation constants (Kd) of compounds of general formula (I) and CDK/Cyclin complexes. The principle behind this assay is based upon the binding and displacement of an Alexa Fluor 647-labeled tracer, which binds to the active site of kinases. Binding of the tracer to the kinase is detected using a Eu-labeled antibody. Simultaneous binding of both the tracer and antibody to the kinase gives rise to a FRET-signal. Binding of an inhibitor to the kinase competes for binding with the tracer, resulting in a loss of FRET.\nThe compounds of general formula (I) summarized in Table 1 were diluted from a 10 mM DMSO stock solution 1:10 in a total volume of 15 μL DMSO. This compound predilution was then serial diluted 1:3 over 8 steps in DMSO and briefly spun down. Each compound solution was now diluted 1:33.33 in kinase buffer (HEPES: 20 mM, pH: 8.0; MgCl2: 10 mM; DTT: 1 mM; Brij-35: 0,01%), mixed thoroughly and spun down. For every sample, 5 μL of the diluted compound were mixed with 5 μL tracer working solution (e.g. 60 nM tracer 236 in kinase buffer for CDK2/Cyclin A) and 5 μL CDK/Cyclin/Anti-GST-AB-working solution (e.g. 15 nM CDK2/Cyclin A, 1:250 dilution of Anti-GST-AB in kinase buffer) in a well of a small volume 384 well plate (Corning Incorporated, Corning, N.Y., USA; order no. 3673). The tracer concentration was adjusted to its dissociation constant (Kd) for the CDK/Cyclin, which was 30 nM for CDK2/Cyclin A, CDK7/Cyclin H and CDK9/Cyclin T1, 20 nM for CDK8/Cyclin C, and 35 nM for CDK9/Cyclin K. For negative controls, in each well 5 μL of DMSO working solution (3% DMSO diluted in kinase buffer) was mixed with 5 μL Anti-GST-AB working solution (e.g. 1:250 dilution of Anti-GST-AB in kinase buffer for CDK2/Cyclin A) and 5 μL Tracer working solution (e.g. 60 nM Tracer 236 in kinase buffer for CDK2/Cyclin A). For positive controls, in each well 5 μL of DMSO working solution (3% DMSO diluted in kinase buffer) was mixed with 5 μL CDK/Cyclin/Anti-GST-AB-working solution: (e.g. 15 nM CDK2/Cyclin A, 1:250 dilution of Anti-GST-AB in kinase buffer) and 5 μL Tracer working solution (e.g. 60 nM Tracer 236 in kinase buffer for CDK2/Cyclin A). Positive and negative controls were calculated from at least 8 different sample wells. The 384 well plates were mixed in a Teleshaker plate mixer (Beckman Coulter, Brea, Calif., USA) at 2000 rpm for 40 sec, and incubated for 1 h at room temperature before reading. The FRET signal was measured at 340 nm excitation, 665 nm and 615 nm emission (for the kinase tracer and LanthaScreen Eu-AB, respectively) with an Envision spectrophotometer (Perkin Elmer, Waltham, Mass., USA) with […]. Kd values were determined from the sigmoidal dose response curves with the software Quattro Workflow (Quattro GmbH, Munich, Germany)."}}, "data": [{"smiles": "NS(=O)(=O)Cc1cccc(Nc2ncnc(N3CCCC3c3ccccc3)n2)c1", "note": "(racemic) [Compound B33, rac-3-[(4-(2-Phenylpyrrolidin-1-yl)-1,3,5-triazin-2-yl)amino]-benzenemethanesulfonamide]", "values": [{"measurement": "IC50", "setting": "CDK6/CyclinD3", "result": "> 10", "unit": "µM"}, {"measurement": "IC50", "setting": "CDK7/CyclinH/MAT1", "result": "> 10", "unit": "µM"}]}, {"smiles": "NS(=O)(=O)Cc1cccc(Nc2ncnc(N3CCCCC3)n2)c1", "note": "[Compound B1, 3-[(4-(Piperidin-1-yl)-1,3,5-triazin-2-yl)amino]benzenemethane sulfonamide]", "values": [{"measurement": "Kd", "setting": "CDK2/CyclinA", "result": "> 10", "unit": "µM"}, {"measurement": "IC50", "setting": "CDK6/CyclinD3", "result": "> 10", "unit": "µM"}, {"measurement": "IC50", "setting": "CDK7/CyclinH/MAT1", "result": "> 10", "unit": "µM"}]}, {"smiles": "COC[C@H]1CCCN1c1ncnc(Nc2cccc(CS(N)(=O)=O)c2)n1", "note": "[Compound B17, (R)-3-[(4-(2-(Methoxymethyl)pyrrolidin-1-yl)-1,3,5-triazin-2-yl)amino]benzenemethanesulfonamide]", "values": [{"measurement": "Kd", "setting": "CDK2/CyclinA", "result": "1 to 10", "unit": "µM"}, {"measurement": "IC50", "setting": "CDK6/CyclinD3", "result": "> 10", "unit": "µM"}, {"measurement": "IC50", "setting": "CDK7/CyclinH/MAT1", "result": "> 10", "unit": "µM"}]}, {"smiles": "COC(=O)[C@H]1CCCN1c1ncnc(Nc2cccc(CS(N)(=O)=O)c2)n1", "note": "[Compound B21, (R)-Methyl 1-[4-((3-(Sulfamoylmethyl)phenyl)amino)-1,3,5-triazin-2-yl]pyrrolidine-2-carboxylate]", "values": [{"measurement": "Kd", "setting": "CDK2/CyclinA", "result": "1 to 10", "unit": "µM"}]}, {"smiles": "NS(=O)(=O)Cc1cccc(Nc2ncnc(N3CCc4ncccc4C3)n2)c1", "note": "[Compound B38, 3-[(4-(7,8-Dihydro-1,6-naphthyridin-6(5H)-yl)-1,3,5-triazin-2-yl)amino]-benzenemethanesulfonamide]", "values": [{"measurement": "Kd", "setting": "CDK2/CyclinA", "result": "0.1 to 1", "unit": "µM"}, {"measurement": "IC50", "setting": "CDK6/CyclinD3", "result": "> 10", "unit": "µM"}, {"measurement": "IC50", "setting": "CDK7/CyclinH/MAT1", "result": "> 10", "unit": "µM"}]}, {"smiles": "NS(=O)(=O)Cc1cccc(Nc2ncnc(N3CCc4nc[nH]c4C3)n2)c1", "note": "[Compound B44, 3-[(4-(6,7-Dihydro-3H-imidazo[4,5-c]pyridin-5(4H)-yl)-1,3,5-triazin-2-yl)amino]benzenemethanesulfonamide]", "values": [{"measurement": "Kd", "setting": "CDK2/CyclinA", "result": "< 0.1", "unit": "µM"}]}, {"smiles": "NS(=O)(=O)Cc1cccc(Nc2ncnc(N3CCc4ncsc4C3)n2)c1", "note": "[Compound B45, 3-[(4-(6,7-Dihydrothiazolo[5,4-c]pyridin-5(4H)-yl)-1,3,5-triazin-2-yl)amino]benzenemethanesulfonamide]", "values": [{"measurement": "Kd", "setting": "CDK2/CyclinA", "result": "< 0.1", "unit": "µM"}, {"measurement": "IC50", "setting": "CDK7/CyclinH/MAT1", "result": "1 to 10", "unit": "µM"}]}, {"smiles": "NS(=O)(=O)Cc1cccc(Nc2ncnc(N3CCCn4nccc43)n2)c1", "note": "[Compound B47, 3-[(4-(6,7-Dihydropyrazolo[1,5-a]pyrimidin-4(5H)-yl)-1,3,5-triazin-2-yl)amino]benzenemethanesulfonamide]", "values": [{"measurement": "Kd", "setting": "CDK2/CyclinA", "result": "< 0.1", "unit": "µM"}, {"measurement": "IC50", "setting": "CDK6/CyclinD3", "result": "1 to 10", "unit": "µM"}, {"measurement": "IC50", "setting": "CDK7/CyclinH/MAT1", "result": "1 to 10", "unit": "µM"}]}, {"smiles": "NS(=O)(=O)Cc1cccc(Nc2ncnc(N3Cc4cn[nH]c4C3)n2)c1", "note": "[Compound B51, 3-[(4-(Pyrrolo[3,4-c]pyrazol-5(1H,4H,6H)-yl)-1,3,5-triazin-2-yl)amino]-benzenemethanesulfonamide]", "values": [{"measurement": "Kd", "setting": "CDK2/CyclinA", "result": "1 to 10", "unit": "µM"}, {"measurement": "IC50", "setting": "CDK6/CyclinD3", "result": "> 10", "unit": "µM"}, {"measurement": "IC50", "setting": "CDK7/CyclinH/MAT1", "result": "> 10", "unit": "µM"}]}]}
